Key:
Achaea janata = experiment: Antifeedant activity against prestarved healthy third-instar larval stage of Achaea janata assessed as area of leaf consumed after 6 hr by conventional no-choice leaf-disk bioassay; format: functional
Spodoptera litura = experiment: Antifeedant activity against prestarved healthy third-instar larval stage of Spodoptera litura assessed as area of leaf consumed after 6 hr by conventional no-choice leaf-disk bioassay; format: functional

SMILES	ED50 (Achaea janata) [microg/cm2]	ED50 (Spodoptera litura) [microg/cm2]
CCCCCCCCCCCCCCCCNC1=C(C)C(=O)c2cccc(OC)c2C1=O	64.23	16.77
CCCCCCCCNC1=C(C)C(=O)c2cccc(OC)c2C1=O	44.76	>500
CCCCCCCCCCNC1=C(C)C(=O)c2cccc(OC)c2C1=O	30.25	31.109
CCCCCCNC1=C(C)C(=O)c2cccc(OC)c2C1=O	73.31	278.34
COc1cccc2c1C(=O)C(NCc1ccc(F)cc1)=C(C)C2=O	51.091	302.32
CCCCCCCCCNC1=C(C)C(=O)c2cccc(OC)c2C1=O	24.04	32.5
CCCNC1=C(C)C(=O)c2cccc(OC)c2C1=O	>500	>500
CC1=CC(=O)c2c(O)cccc2C1=O [PLUMBAGIN]	23.97	43.71
C=CCNC1=C(C)C(=O)c2cccc(OC)c2C1=O	13.51	31.22
CCCCCCCC/C=C/CCCCCCCCNC1=C(C)C(=O)c2cccc(OC)c2C1=O	26.49	180.36
CCCCCCCCCCCCNC1=C(C)C(=O)c2cccc(OC)c2C1=O	59.62	>500
CCCCNC1=C(C)C(=O)c2cccc(OC)c2C1=O	>500	64.08
COc1cccc2c1C(=O)C(NCc1ccc(C(F)(F)F)cc1)=C(C)C2=O	21.82	>500
COc1cccc2c1C(=O)C(NCc1ccccc1)=C(C)C2=O	>500	>500
C/C=C(\C)C(=O)O[C@H]1C[C@@H](OC(C)=O)[C@@]2(C(=O)OC)CO[C@H]3[C@@H](O)[C@@](C)([C@]45O[C@@]4(C)[C@@H]4C[C@H]5O[C@@H]5OC=C[C@@]54O)[C@H]4[C@]1(CO[C@]4(O)C(=O)OC)[C@@H]32 [AZADIRACHTIN A]	0.72	0.89
COc1ccc(CNC2=C(C)C(=O)c3cccc(OC)c3C2=O)cc1	>500	>500
CCNC1=C(C)C(=O)c2cccc(OC)c2C1=O	24.41	>500
